We go through nine compounds from ChEMBL document CHEMBL4270494, “Recent insights into synthetic β-carbolines with anti-cancer activities” (Eur J Med Chem, 2017).

Where a name gives a salt, the structure may show the parent alone.

For one assay, the system named is A-375. In words: Cytotoxicity against human A375 cells. In kind it is functional, cell-based.
Another assay has as its system NCI-H1299. In words: Cytotoxicity against human NCI-H1299 cells. Type of assay: functional, cell-based.
In the next assay the test system is IMR-90. Put plainly: Cytotoxicity against human IMR90 cells. In kind it is functional, cell-based.
For another assay, the system named is PC-3. Put plainly: Cytotoxicity against human PC3 cells assessed as reduction in cell viability incubated for 48 hrs by MTT assay. In kind it is functional, cell-based. As to conditions: PC-3, 48 h. On the technique in general: Formazan colour is commonly taken as a measure of viable cells.
For the next assay, the system named is HT-29. Put plainly: Cytotoxicity against human HT-29 cells assessed as reduction in cell viability incubated for 48 hrs by MTT assay. Type of assay: functional, cell-based. The note with it: HT-29, 48 h.
In the next assay the test system is A549. In words: Cytotoxicity against human A549 cells assessed as reduction in cell viability incubated for 48 hrs by MTT assay. In kind it is functional, cell-based. As to conditions: A549, 48 h.
The subject of a further assay is B16. In words: Cytotoxicity against mouse B16 cells assessed as reduction in cell viability incubated for 48 hrs by MTT assay. In kind it is functional, cell-based. The note with it: B16, 48 h.
In assay [1] the test system is MCF7. Put plainly: Induction of apoptosis in human MCF7 cells by Annexin V-FITC dual staining based flow cytometry (reference value: 0.03%). In kind it is functional.
Assay [2] concerns MCF7. Put plainly: Cytotoxicity against human MCF7 cells by MTT assay. In kind it is functional, cell-based.
The next assay relates to CCRF S-180. Put plainly: Antitumor activity against mouse S180 cells implanted in ICR mouse assessed as inhibition of tumor growth at 0.1 umol/kg, ip for 7 consecutive days starting 24 hrs after tumor cell inoculation relative to untreated control. As to conditions: CCRF S-180, ip, read-out: TGI. In kind it is functional.
The next assay relates to HeLa. In words: Cytotoxicity against human HeLa cells by MTT assay. Type of assay: functional, cell-based.
The subject of the next assay is HepG2. In words: Cytotoxicity against human HepG2 cells by MTT assay. Type of assay: functional, cell-based.
The subject of the next assay is HL-60. In words: Cytotoxicity against human HL60(TB) cells incubated for 48 hrs by SRB assay. Type of assay: functional. As to conditions: HL-60, 48 h, read-out: LC50 (the source's name).

For the compound `c1ccc2c(c1)[nH]c1c(CNCCOCCNCc3nccc4c3[nH]c3ccccc34)nccc12`, the 50% inhibitory concentration (IC50) with A-375 was 3 µM; in the assay with NCI-H1299, 1.6 µM; with IMR-90 it was 1.6 to 201 µM.
With `COc1cc(C(=O)/C=C/c2cc3c([nH]c4ccccc43)c(-c3cc(OC)c(OC)c(OC)c3)n2)cc(OC)c1OC`, the concentration for half-maximal inhibition (IC50) in the assay on PC-3 was found to be 19.6 µM; with HT-29, 23.1 µM; in the assay with A549, 5.3 µM; in the assay on B16, 6.37 µM.
Compound `O=C(/C=C/c1cc2c([nH]c3ccccc32)c(-c2ccc(C(F)(F)F)cc2)n1)c1ccco1` displayed an Activity in the assay with MCF7 [1] of 58.29%. In the assay with MCF7 [2], this compound gave an IC50 of 1.56 to 5.29 µM.
Turning to `COc1cc(-c2nc(C(=O)N[C@@H](Cc3c[nH]c4ccccc34)C(=O)N[C@@H](Cc3c[nH]c4ccccc34)C(=O)N[C@@H](CO)C(=O)OCc3ccccc3)cc3c2[nH]c2ccccc23)ccc1O`, the inhibition in vivo at 0.1 µmol/kg in the assay on CCRF S-180 was found to be 62.9%.
In turn, `CC(=O)N1N=C(c2ccco2)CC1c1cc2c([nH]c3ccccc32)c(-c2ccc(C(F)(F)F)cc2)n1` (configuration not stated) showed an Activity in the assay with MCF7 [1] of 62.64%. Moreover, the IC50 in the assay on MCF7 [2] fell in the range of 1.56 to 5.29 µM.
Consider `COC(=O)c1cc2c([nH]c3ccccc32)c(-c2ccc(OCc3cn(-c4cccc(Cl)c4Cl)nn3)cc2)n1`, for which the IC50 in the assay on HeLa stood at 46 µM; with HepG2 it was 32 µM.
`COc1ccc2[nH]cc(-c3nccc4c3[nH]c3ccc(OC)cc34)c2c1`: in the assay with HL-60, the CC50 turned out to be 4.2 µM.
On to `CC[C@H](C)[C@H](NC(=O)[C@H](Cc1c[nH]c2ccccc12)NC(=O)[C@H](Cc1c[nH]c2ccccc12)NC(=O)c1cc2c([nH]c3ccccc32)c(-c2ccc(O)c(OC)c2)n1)C(=O)OCc1ccccc1`, for which the inhibition in vivo at 0.1 µmol/kg with CCRF S-180 stood at 63.4%.
Still for that read-out and setting: for `COc1cccc2c1C(=O)c1c(O)c3c(c(O)c1C2=O)C[C@@](O)(C(=O)CO)C[C@@H]3O[C@H]1C[C@H](N)[C@H](O)[C@H](C)O1` [DOXORUBICIN HYDROCHLORIDE] the value was 61.1%.

The IC50 is the concentration needed to halve the response being measured.
